From patent publication US5888405A, “Methods for controlling biofouling using amino methyl phosphonic acids” (Buckman Laboratories International Inc., priority 1997, dated 1999)
Values joined by “and” are separate entries in the source; they are usually repeats but may differ in a detail not shown here. Identical values can stand only once. Like-named read-outs stand apart in the source and are kept apart here.

Experiments:
Type in all cases: cell-based
[1] = system: Bacteria of the genera Bacillus, Flavobacterium, and Pseudomonas; assay: Bacterial adhesion to submerged slides in bioreactor, Gram Crystal Violet staining, visual biofilm score (Example 3); design: scale not given here; settings: 100 ppm, acetone, 3 days, pH 7, average of four replicates, control 3-4
Description: (§1) The following method effectively defines the ability of a chemical compound to inhibit bacterial adhesion, or attack the formation of existing attached microorganisms, on various types of surfaces. As an overview, bioreactors were constructed in which approximately 1 in.×3 in. slides (glass or stainless steel) were fixed to the edge of the bioreactor. The lower ends (approx. 2 in.) of the slides dipped into a bacterial growth medium (pH 7) within the bioreactor which contained a known concentration of the test chemical. Following inoculation with known bacterial species, the test solutions were stirred continuously for 3 days. Unless otherwise indicated in the results below, the medium within the bioreactor was turbid by the end of three days. […] A staining procedure was then used on the slides in order to determine the amount of bacteria attached to the surfaces of the slides.
(§2) The bioreactors comprised a 400 ml glass beaker over which a lid (cover from a standard 9 cm diameter glass petri dish) was placed. With the lid removed, slides of the material of choice were taped at one end with masking tape and suspended inside the bioreactor from the top edge of the beaker. This allows the slides to be submerged within the test medium. Typically, four slides (replicates) were uniformly spaced around the bioreactor. The score presented below are the average of the four replicates. A magnetic stirring bar was placed in the bottom of the unit, the lid positioned, and the bioreactor autoclaved. Two different types of material were used as slides, stainless steel as a metal and glass as a hydrophilic surface.
(§3) The liquid medium utilized in the bioreactors was described previously by Delaquis, et al., "Detachment Of Pseudomonas fluorescens From Biofilms On Glass Surfaces In Response To Nutrient Stress", Microbial Ecology 18:199-210, 1989. The composition of the medium was:
(§4) The medium was autoclaved and then allowed to cool. If a sediment formed in the autoclaved medium, the medium was resuspended by shaking before use.
(§5) Bacteria of the genera Bacillus, Flavobacterium, and Pseudomonas were isolated from a paper mill slime deposit and maintained in continuous culture. The test organisms were separately streaked onto plate count agar and incubated at 30° C. 24 hours. With a sterile cotton swab, portions of the colonies were removed and suspended in sterile water. The suspensions were mixed very well and were adjusted to an optical density of 0.858 (Bacillus), 0.625 (Flavobacterium), and 0.775 (Pseudomonas) at 686 nm.
(§6) Biofilm Production/Chemical Testing: To four separate bioreactors was added 200 ml of the sterile medium prepared above. Chemicals to be evaluated as biodispersants were first prepared as a stock solution (40 mg/2 ml) using either water or a 9:1 acetone:methanol mixture (ac/MeOH) as a solvent. A 1.0 ml aliquot of the stock solution was added to the bioreactor using moderate, continuous magnetic stirring. This provided an initial concentration of 100 ppm for the test compound. One bioreactor (Control) contains no test compound. Aliquots (0.5 ml) from each of the three bacterial suspensions were then introduced into each bioreactor. The bioreactors were then provided with continuous stirring for three days to allow for an increase in bacterial population and deposition of cells onto the surfaces of the slides.
After the test was completed, the slides were removed from the bioreactors and were positioned vertically to permit air drying. The degree of adhesion of bacteria to the test surface was then estimated using a staining procedure. The slides were briefly flamed in order to fix the cells to the surface, and then transferred for two minutes to a container of Gram Crystal Violet (DIFCO Laboratories, Detroit, Mich.). The slides were gently rinsed under running tap water, and then carefully blotted. The degree of bacterial adhesion was then determined by visual examination and subjective scoring of each slide. […]

E. Aerogenes = assay: Minimum inhibitory concentration, 18 hour Basal Salts test; settings: for MIC: Klebsiella aerogenes, 18 h
Description: ^1 Minimum inhibitory concentration (MIC) for each compound against
the bacteria E. Aerogenes using an 18 hour Basal Salts test at pH 6 and p

[2] = system: Bacteria of the genera Bacillus, Flavobacterium, and Pseudomonas; assay: Quantitative method of evaluation of bacterial adhesion (crystal violet absorbance, % IBA), Example 4; settings: for Score (% IBA), inhibition of bacterial adhesion: 100 ppm; for inhibition at 100 ppm: 168 h
Description: as §1, §2, §3, §4, §5, §6
The test method, construction of bioreactors, bacterial growth medium, preparation of bacterial inocula, and biofilm/chemical testing are the same as those in EXAMPLE 3.
After 48 h or 168 h (1 week) of incubation at 26°-28° C. the slides were removed from the bioreactors and were positioned vertically to […] using a staining procedure. The slides were briefly flamed in order to fix the cells to the surface, and then transferred for one minute to a container of Gram Crystal Violet (DIFCO Laboratories, Detroit, Mich.). […]

[3] = glass slides, acetone, 168 h incubation at 26-28° C., 50% or greater considered effective
[4] = stainless steel (SS) slides, acetone, 168 h incubation at 26-28° C., 50% or greater considered effective

Row | Compound | Score (biofilm score, bacterial adhesion) ([1]; glass slides) | Score (biofilm score, bacterial adhesion) ([1]; stainless steel (SS) slides) | Minimum inhibitory concentration (MIC) (E. Aerogenes; pH 6) | Minimum inhibitory concentration (MIC) (E. Aerogenes; pH 8) | Score (% IBA), inhibition of bacterial adhesion [2, 3] | Score (% IBA), inhibition of bacterial adhesion [2, 4] | MIC (E. Aerogenes; pH 6, pH 6, read-out: Minimum inhibitory concentration (MIC)) | inhibition at 100 ppm ([2]; glass slides, acetone, 168 h incubation at 26-28° C., 50% or greater considered effective, read-out: Score (% IBA), inhibition of bacterial adhesion) | inhibition at 100 ppm ([2]; stainless steel (SS) slides, acetone, 168 h incubation at 26-28° C., 50% or greater considered effective, read-out: Score (% IBA), inhibition of bacterial adhesion) | MIC (E. Aerogenes; pH 8, read-out: Minimum inhibitory concentration (MIC), pH 8) | inhibition at 100 ppm ([2]; read-out: Score (% IBA), inhibition of bacterial adhesion, glass slides, acetone, 168 h incubation at 26-28° C., 50% or greater considered effective) | inhibition at 100 ppm ([2]; read-out: Score (% IBA), inhibition of bacterial adhesion, stainless steel (SS) slides, acetone, 168 h incubation at 26-28° C., 50% or greater considered effective)
1 | hexyl amino methyl phosphonic acid | 3.0 | 1.0 and 2.0 | > 100 | > 500 | 36 % IBA | 42 % IBA | – | – | – | – | – | –
2 | decyl amino methyl phosphonic acid | 2.25 | 1.25 and 2.3 | > 100 | > 500 | 5 % IBA | 62 % IBA | – | – | – | – | – | –
3 | CCCCCCCCN(CCCCCCCC)CP(=O)(O)O [g, dioctyl amino methyl phosphonic acid] | 2.0 | – | – | – | – | – | > 100 µg/mL | 78% | 67% | – | – | –
4 | dodecyl amino methyl phosphonic acid | – | 3 and 4 | > 100 | > 500 | 43 % IBA | 54 % IBA | – | – | – | – | – | –
5 | octadecyl amino methyl phosphonic acid [f] | – | 2.25 and 2.70 | > 100 | > 500 | 81 % IBA | 39 % IBA | – | – | – | – | – | –
6 | O=P(O)(O)CN1CCOCC1 [e] | 3 | 3 and 2.3 | – | – | – | – | – | – | – | > 500 µg/mL | 52% | 33%
7 | butyl amino methyl phosphonic acid | – | – | – | > 500 | 21 % IBA | 36 % IBA | – | – | – | – | – | –
